SMILES strings stand for the structures. Structures can show the parent of a compound that is named as a salt. Residues, ends and D or L forms follow the SMILES beside them. *: point of attachment. Tfa = O=C(C(F)(F)F)*

In turn, `COC(=O)c1cccc(-c2cccc(Oc3cc(Cl)cc(Cl)c3)n2)c1` yielded a melting point of 125 to 126 °C.

Consider `CC(C)(C)OC(=O)N1CCn2c(C(=O)N[C@@H](Cc3ccccc3)[C@H](O)CNC3(c4cccc(C(F)(F)F)c4)CC3)cc(C(=O)O)c2C1`, for which the melting point turned out to be 134 °C.

Compound `O=c1c2c(O)c(O)ccc2c2cc(O)c(O)cc2n1Cc1ccc(Cl)c(Cl)c1` came in with a melting point of 246 °C.

`COc1cccc(CO)c1C(O)c1ccccn1` (centres undefined) returned a melting point of 102 to 104 °C.

`C=CC(CCc1ccccc1)NC(=O)OC(C)(C)C` (centres undefined) returned a melting point of 53 °C.

The compound `Cc1nccn1-c1ccc(COc2cccc(C3(C#N)CCOCC3)c2)cc1` had a melting point of 153 to 154 °C.

Turning to `CCOP(=O)(/C=C/c1cn(-c2ccccc2)nc1OCc1ccc(OCc2nc(-c3cccc(C(=O)OC)c3)oc2C)c(OC)c1)OCC`, the melting point lay within 112 to 113 °C.

Regarding `COc1nc(N)c2c(OC)c(OC)cc(Cl)c2n1`, the melting point lay within 203 to 204 °C.

Regarding `Cc1ccc(C)c(S(=O)(=O)Nc2onc(C)c2Br)c1`, the melting point was in the range of 102 to 104 °C.

As to `Cc1nc2ccc(NCCCN3CCC(OC(c4ccccc4)c4ccccc4)CC3)nn2n1`, the melting point is 119 to 120 °C.

As to `COC(=O)COc1cccc2c(CCS(=O)(=O)CCc3ccccc3)c(C)oc12`, the melting point fell in the range of 91 to 92 °C.

Consider `CC(C)CSc1c(-c2ccc(S(C)(=O)=O)cc2)cnn(CC(F)(F)F)c1=O`, for which the melting point is 135 to 138 °C.

As to `CCCCOc1ccc(NC(=O)c2ccccc2C(c2ccc(O)cc2)c2ccc(O)cc2)cc1`, the melting point is 110 to 112 °C.

With `CCN(CC)C(=O)OC12C(=O)c3ccccc3C1(O)Oc1cc(C(C)C)ccc12` (centres undefined), the melting point was in the range of 101 to 104 °C.

`Cc1cc(Cl)c(OCCO[Si](C)(C)C(C)(C)C)cc1Nc1nnc2n1[C@H](c1ccc(F)cc1)COC2` had a melting point of 141 to 142 °C.

`COC(=O)CCSCCCCCCCCCCCCI` came in with a melting point of 33 °C.

In the case of `CNC(=O)[C@@H]1C=CCN1C(=O)OC(C)(C)C`, the melting point is 47 to 48 °C.

The compound `CCCCc1c(-c2cc3ccccc3o2)nc(N)nc1-c1cc2ccccc2o1` yielded a melting point of 142 to 144 °C.

Compound `CCCCSc1nc(=O)n(C(=O)NC)s1` displayed a melting point of 102 °C.

`O=C(O)CCNCCn1nc(-c2c(-c3ccccc3)nn3ccccc23)ccc1=O`: the melting point fell in the range of 230 to 232 °C.

In turn, `O=C1NC(=O)C(Cc2ccc(OC3CCN(C(=O)OCc4ccccc4)CC3)cc2)S1` (centres undefined) returned a melting point of 72 to 74 °C.

For `CC(=O)OCC(=O)C1(OC(C)=O)C(C)CC2C3CC(Cl)C4=CC(=O)C=CC4(C)C34OC4CC21C` (centres undefined), the melting point is 211 °C.

`CN1CCN(c2ccc(/C=C/c3cc(/C=C/c4ccc5cc[nH]c5c4)[nH]n3)cc2)CC1` had a melting point of 192 to 198 °C.

Take `COc1cc2ncnc(N3CCC(=O)CC3)c2cc1OC`: the melting point was in the range of 176 to 178 °C.

Take `O=C(O)CNC(=O)CNC(=O)C(F)(F)F` (Tfa-Gly-Gly-OH): the melting point turned out to be 185 °C.

Compound `Cc1ccc(-c2ccc3c(c2)C=C(C(=O)Nc2ccc(Cc4ccccn4)cc2)CCO3)cc1` returned a melting point of 189 to 190 °C.

In turn, `COc1cc2ncc(C#N)c(Nc3ccc(C(F)(F)F)cc3)c2cc1OC` had a melting point of 116 to 118 °C.

The compound `CCCCc1ccc(C#Cc2ccc(Br)cc2)cc1` had a melting point of 75.6 to 76.1 °C.

Compound `Cc1csc(-c2ccc(C(=O)Nc3ccc4cc(CN5CCCC5)cnc4c3C)cc2)c1` came in with a melting point of 224 to 225 °C.

Compound `CN1C(=O)COc2ccc(C3=NNC(=O)CC3)cc21` showed a melting point of 247 to 248 °C.

In turn, `COc1nc2cc(F)cc(CBr)c2nc1OC` showed a melting point of 122 to 125 °C.

Take `CC1(C)C2CC[C@@]1(N1CCOCC1)[C@H](O)C2`: the melting point is 35 to 36 °C.

As for `COc1nc(O)cc(CCl)n1`, the melting point lay in the range of 154 to 155 °C.

In turn, `Cc1cccc2c1nc(COc1ccc(Cl)cc1)n2CCC(C)C(=O)O` (centres undefined) registered a melting point of 149 to 151 °C.

In general, melting point refers to the temperature, or range, at which the solid turns liquid.

For the origin of these results see a melting point compilation (Tetko et al.; mined from patent text by program, amines drawn as free bases though some values may be those of a salt).
